{
  "source": "paper PMC8308836",
  "about": "“Albumin Nanoparticle Formulation for Heart-Targeted Drug Delivery: In Vivo Assessment of Congestive Heart Failure” (Pharmaceuticals, 2021)",
  "key": {"TNF-α": {"tested_on": "TNF-α", "experiment": "Serum cytokine measurement by ELISA: TNF-α", "type": "in vivo, female Lewis rats", "conditions": "1-week post treatment; i.v. injection, CHF rats, mean ± SD (n = 5)", "experimental": "(§1) The cytokine analysis for levels of IL-6, IL-10, and tumor necrosis factor-alpha (TNF-α) was performed using commercially available ELISA kits (Abcam) according to the manufacturer’s instructions. Microtiter plates were precoated with a murine monoclonal antibody against the rat cytokine being measured. Standards of the analyte and serum samples were added in triplicate. The absorbance was read at 450 nm within 30 min of stopping the reaction and standard curves were plotted."}, "[1]": {"tested_on": "rat model of congestive heart failure", "description": "Briefly, rats were anesthetized using 5% isoflurane, intubated, and mechanically ventilated at 80 breaths/minute. […] About 48 h after ligation of the artery, injections were performed using a 27-G needle. […] Group 3 (n = 8) received 250 μL bolus intravenous injection of 50 μg/kg MRN Lactate [39, 40]. […] Various endpoint measurements were taken as described in subsequent paragraphs.\nEchocardiographic examinations were performed under inhaled isoflurane anesthesia (2.5% in oxygen, 500–700 mL/min). Transthoracic echocardiography was performed for each rat as a baseline before the surgery, 48 h post surgery, 60 min post injection, 24 h post injection, 48 h post injection, and 1-week post injection. Echocardiograms were obtained with a commercially available system (Micromaxx P04224; SonoSite, Bothell, WA, USA), equipped with a linear probe 7–13 MHz 25 mm footprint turbo transducer (P06519.11; SonoSite). Briefly, LV end-diastolic diameters (LVEDD) and end-systolic diameters (LVESD) were measured with M-mode tracings between the anterior and posterior walls from the parasternal short-axis view just below the level of the papillary muscles of the mitral valve [13]. The time of end-diastole was defined as time of maximum diameter of the LV in one heart cycle. Accordingly, end-systole was defined as the minimum diameter. Following the American Society of Echocardiology leading-edge method, two images on average were obtained in each view and averaged over three consecutive cycles [41]. The left-ventricular end-diastolic volume (LVEDV) and left-ventricular end-systolic volume (LVESV) were measured using the Teichholz formula [13]."}, "[2]": {"conditions": "24 h post treatment; i.v. injection 50 μg/kg, CHF rats, mean ± SD (n = 3)", "description": "The surgery was performed in a blinded manner as previously mentioned [22, 38]. Briefly, rats were anesthetized using 5% isoflurane, intubated, and mechanically ventilated at 80 breaths/minute. Via a left thoracotomy (through the fourth intercostal space), the LAD coronary artery was permanently ligated 2 mm from its origin with a 7/0 polypropylene suture (Ethicon Inc., Somerville, NJ, USA). […] About 48 h after ligation of the artery, injections were performed using a 27-G needle. Rats were randomized into five groups: Group 1 (n = 5) received an intravenous injection of 1 c.c. saline (Control). […] Group 3 (n = 8) received 250 μL bolus intravenous injection of 50 μg/kg MRN Lactate [39, 40]. Group 4 (n = 5) received 250 μL intravenous injection of empty NPs in the same concentration as Group 1. […] Blood was collected 24 h post injection for milrinone quantification. […]\nThe milrinone in plasma samples was quantified using High Performance Liquid Chromatography (HPLC) LCMS-8060 (Shimadzu). […] All samples were reconstituted in 40 µL of mobile phase A and analyzed by LC-MS/MS. […] The gradient started at 95:5 A:B. Samples were quantified using the area under the curve (AUC) and a standard curve."}, "[3]": {"tested_on": "rat model of congestive heart failure", "experiment": "Serum safety and toxicity markers (liver and renal function)", "type": "in vivo, female Lewis rats", "conditions": "CHF rats, i.v. injection; normal range 20–61 U/L", "description": "Briefly, rats were anesthetized using 5% isoflurane, intubated, and mechanically ventilated at 80 breaths/minute. Via a left thoracotomy (through the fourth intercostal space), the LAD coronary artery was permanently ligated 2 mm from its origin with a 7/0 polypropylene suture (Ethicon Inc., Somerville, NJ, USA). […] About 48 h after ligation of the artery, injections were performed using a 27-G needle. Rats were randomized into five groups: Group 1 (n = 5) received an intravenous injection of 1 c.c. saline (Control). […] Group 4 (n = 5) received 250 μL intravenous injection of empty NPs in the same concentration as Group 1. […] Various endpoint measurements were taken as described in subsequent paragraphs. At 5 days post injection, all rats were killed by euthanasia.\nBlood was collected via the jugular vein from the animals using a sterile 23 G/25 mm needle in the Microtainer® serum separator tubes (Becton Dickinson, Franklin Lakes, NJ, USA) for serum separation and in Plasma-EDTA tubes (Becton Dickinson, Franklin Lakes, NJ, USA) for plasma collection. The blood was allowed to clot at room temperature for 30 min and subsequently placed on ice until centrifugation. Serum was separated by low-speed centrifugation at 1500 rpm for 15 min at 4 °C and was frozen at −80 °C until analysis. […]"}, "[4]": {"experiment": "Pharmacokinetics of milrinone in plasma after i.v. injection", "type": "in vivo, female Lewis rats", "conditions": "MRN dose 50 μg/kg, rat", "from_the_text": "Amrinone was used as an internal standard."}, "IL-6": {"tested_on": "IL-6", "experiment": "Serum cytokine measurement by ELISA: IL-6", "type": "in vivo, female Lewis rats", "conditions": "1-week post treatment; i.v. injection, CHF rats, mean ± SD (n = 5)", "experimental": "as §1"}, "IL-10": {"tested_on": "IL-10", "experiment": "Serum cytokine measurement by ELISA: IL-10", "type": "in vivo, female Lewis rats", "conditions": "1-week post treatment; i.v. injection, CHF rats, mean ± SD (n = 5)", "experimental": "as §1"}, "[5]": {"conditions": "2 h time point; i.v., MRN dose 50 μg/kg, rat, mean ± SD (n = 4)", "description": "The animals were randomized into three groups in a blinded manner. Group I (n = 6) was intravenously injected with 1 c.c. saline. […] Group III (n = 12) was intravenously injected with 250 μL of MRN Lactate containing 50 μg/kg MRN. Blood was collected from the jugular vein at the following timepoints: 0, 5, 15, 30, 45, 60, 120, and 360 min. The animals were euthanized by isoflurane/CO2. Organ tissues (heart, lungs, liver, and kidneys) were collected, washed, rinsed, and snap-frozen in liquid nitrogen."}, "[6]": {"conditions": "i.v. injection group, 48 h Post Ligation (before treatment)"}, "[7]": {"conditions": "i.v. injection group, Baseline—Pre-Ligation (before treatment)"}, "[8]": {"conditions": "i.v. injection, 50 μg/kg milrinone, 1-week Post Injection"}, "[9]": {"conditions": "i.v. injection, 50 μg/kg milrinone, 60 min Post Injection"}, "[10]": {"conditions": "i.v. injection, 50 μg/kg milrinone, 24 h Post Injection"}, "[11]": {"conditions": "i.v. injection, 50 μg/kg milrinone, 48 h Post Injection"}},
  "note": "Where two headings read alike, the source gives them in different places.",
  "data": [
    {"smiles": "CC(O)C(=O)O.Cc1[nH]c(=O)c(C#N)cc1-c1ccncc1", "note": "[MRN Lactate, milrinone lactate]", "values": [
      {"measurement": "Serum TNF-α level", "setting": "TNF-α", "value": "17.1 ± 2.8", "unit": "pg/mL"},
      {"measurement": "Left Ventricular Ejection Fraction (LVEF)", "setting": "[1]; [6]", "value": "65.3 ± 2.3", "unit": "%"},
      {"measurement": "Left Ventricular Fractional Shortening (LVFS)", "setting": "[1]; [6]", "value": "34.3 ± 2.7", "unit": "%"},
      {"measurement": "Left Ventricular Ejection Fraction (LVEF)", "setting": "[1]; [7]", "value": "88.2 ± 1.8", "unit": "%"},
      {"measurement": "Left Ventricular Fractional Shortening (LVFS)", "setting": "[1]; [7]", "value": "52.6 ± 2.7", "unit": "%"},
      {"measurement": "Left Ventricular Ejection Fraction (LVEF)", "setting": "[1]; [8]", "value": "66.1 ± 4.2", "unit": "%"},
      {"measurement": "Left Ventricular Fractional Shortening (LVFS)", "setting": "[1]; [8]", "value": "30.8 ± 2.8", "unit": "%"},
      {"measurement": "Left Ventricular Ejection Fraction (LVEF)", "setting": "[1]; [9]", "value": "80.1 ± 3.3", "unit": "%"},
      {"measurement": "Left Ventricular Fractional Shortening (LVFS)", "setting": "[1]; [9]", "value": "45.6 ± 3.2", "unit": "%"},
      {"measurement": "Left Ventricular Ejection Fraction (LVEF)", "setting": "[1]; [10]", "value": "70.6 ± 3.6", "unit": "%"},
      {"measurement": "Left Ventricular Fractional Shortening (LVFS)", "setting": "[1]; [10]", "value": "33.6 ± 3.9", "unit": "%"},
      {"measurement": "Left Ventricular Ejection Fraction (LVEF)", "setting": "[1]; [11]", "value": "64.8 ± 4.3", "unit": "%"},
      {"measurement": "Left Ventricular Fractional Shortening (LVFS)", "setting": "[1]; [11]", "value": "30.2 ± 3.9", "unit": "%"},
      {"measurement": "milrinone detected in plasma", "setting": "[2]", "value": "0.3 ± 0.1", "unit": "ng/mL"},
      {"measurement": "Serum ALT level", "setting": "[3]", "value": "within the normal range"},
      {"measurement": "milrinone concentration in plasma", "setting": "[4]; 0 min", "value": 334.2, "unit": "ng/mL"},
      {"measurement": "milrinone concentration in plasma", "setting": "[4]; 5 min, mean ± SD (n = 4)", "value": "203.5 ± 45.3", "unit": "ng/mL"},
      {"measurement": "milrinone concentration in plasma", "setting": "[4]; 15 min, mean ± SD (n = 4)", "value": "75.4 ± 6.2", "unit": "ng/mL"},
      {"measurement": "milrinone concentration in plasma", "setting": "[4]; 30 min, mean ± SD (n = 4)", "value": "72.6 ± 12.4", "unit": "ng/mL"},
      {"measurement": "milrinone concentration in plasma", "setting": "[4]; 45 min, mean ± SD (n = 4)", "value": "22.9 ± 11.2", "unit": "ng/mL"},
      {"measurement": "milrinone concentration in plasma", "setting": "[4]; 120 min, mean ± SD (n = 4)", "value": "4.1 ± 1.5", "unit": "ng/mL"},
      {"measurement": "milrinone concentration in plasma", "setting": "[4]; 360 min, mean ± SD (n = 4)", "value": "1.6 ± 0.1", "unit": "ng/mL"},
      {"measurement": "AUC0-t", "setting": "[4]; non-compartmental", "value": 104.3, "unit": "ng·h/mL"},
      {"measurement": "AUC0-∞", "setting": "[4]; non-compartmental", "value": 106.7, "unit": "ng·h/mL"},
      {"measurement": "CL (clearance)", "setting": "[4]; non-compartmental", "value": 7.83, "unit": "mL/min/kg"},
      {"measurement": "MRT (mean residence time)", "setting": "[4]; non-compartmental", "value": 49.1, "unit": "min"},
      {"measurement": "Vss (apparent volume of distribution at steady state)", "setting": "[4]; non-compartmental", "value": 0.38, "unit": "L/kg"},
      {"measurement": "Vz (apparent volume of distribution at elimination)", "setting": "[4]; non-compartmental", "value": 0.73, "unit": "L/kg"},
      {"measurement": "t1/2 (half-life of plasma)", "setting": "[4]; non-compartmental", "value": 64.7, "unit": "min"},
      {"measurement": "Serum IL-6 level", "setting": "IL-6", "value": "39.3 ± 2.7", "unit": "pg/mL"},
      {"measurement": "Serum IL-10 level", "setting": "IL-10", "value": "146.1 ± 24.7", "unit": "pg/mL"},
      {"measurement": "MRN detected in heart", "setting": "[5]", "value": "2.00 ± 1.01", "unit": "ng/mL"},
      {"measurement": "MRN detected in kidneys", "setting": "[5]", "value": "4.80 ± 0.6", "unit": "ng/mL"},
      {"measurement": "MRN detected in liver", "setting": "[5]", "value": "2.44 ± 0.23", "unit": "ng/mL"}
    ]}
  ]
}
